From patent US11447517B2, “Galactoside inhibitor of galectins” (GALECTO BIOTECH AB, priority 2018, dated 2022)
pKd: −log10 of the molar value.

Target: galectin-3 (Homo sapiens (Human), UniProt P17931)
Test: Fluorescence anisotropy assay, inhibition of galectin / fluorescein tagged saccharide probe interaction
Assay type: binding
Description: Evaluation of Kd Values The affinity of Example 1-71 for galectins were determined by a fluorescence anisotropy assay where the compound was used as an inhibitor of the interaction between galectin and a fluorescein tagged saccharide probe as described Sörme, P., Kahl-Knutsson, B., Huflejt, M., Nilsson, U. J., and Leffler H. (2004) Fluorescence polarization as an analytical tool to evaluate galectin-ligand interactions. Anal. Biochem. 334: 36-47, (Sörme et al., 2004) and Monovalent interactions of Galectin-1 By Salomonsson, Emma; Larumbe, Amaia; Tejler, Johan; Tullberg, Erik; Rydberg, Hanna; Sundin, Anders; Khabut, Areej; Frejd, Torbjorn; Lobsanov, Yuri D.; Rini, James M.; et al, From Biochemistry (2010), 49(44), 9518-9532, (Salomonsson et al., 2010). […] 100 nM albumin was included as a carrier to prevent protein loss at such low concentration of galectin.

galectin-3, sequence (P17931 whole entry): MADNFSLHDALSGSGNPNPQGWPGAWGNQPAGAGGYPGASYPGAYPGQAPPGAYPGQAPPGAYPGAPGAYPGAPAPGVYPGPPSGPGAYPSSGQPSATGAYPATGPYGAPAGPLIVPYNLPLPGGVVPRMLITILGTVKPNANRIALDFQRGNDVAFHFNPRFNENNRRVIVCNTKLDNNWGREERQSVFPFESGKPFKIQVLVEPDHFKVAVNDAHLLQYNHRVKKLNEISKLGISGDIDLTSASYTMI

Structure (SMILES) | pKd
CO[C@@H]1[C@@H](n2cc(-c3cc(F)c(F)c(F)c3)nn2)[C@@H](O)[C@@H](CO)O[C@@H]1Sc1cc(Cl)cnc1-c1cccnc1 [Example 26, 5-Chloro-2-(pyridin-3-yl)pyridin-3-yl 3-deoxy-3-[4-(3,4,5-trifluorophenyl)-1H-1,2,3-triazol-1-yl]-2-O-methyl-1-thio-α-D-galactopyranoside] | 7.26
CCO[C@@H]1[C@@H](n2cc(-c3cc(F)c(F)c(F)c3)nn2)[C@@H](O)[C@@H](CO)O[C@@H]1Sc1cc(Cl)cnc1C#N [Example 16, 5-Chloro-2-cyanopyridin-3-yl 3-deoxy-2-O-ethyl-3-[4-(3,4,5-trifluorophenyl)-1H-1,2,3-triazol-1-yl]-1-thio-α-D-galactopyranoside] | 7.23
CO[C@@H]1[C@@H](n2cc(-c3cc(F)c(F)c(F)c3)nn2)[C@@H](O)[C@@H](CO)O[C@@H]1Sc1cncc(Cl)c1 [Example 42, 5-Chloropyridin-3-yl 3-deoxy-3-[4-(3,4,5-trifluorophenyl)-1H-1,2,3-triazol-1-yl]-2-O-methyl-1-thio-α-D-galactopyranoside] | 7.54
CO[C@@H]1[C@@H](n2cc(-c3ccc(Cl)c(F)c3)nn2)[C@@H](O)[C@@H](CO)O[C@@H]1Sc1cncc(Cl)c1 [Example 37, 5-Chloropyridin-3-yl 3-[4-(4-chloro-3-fluorophenyl)-1H-1,2,3-triazol-1-yl]-3-deoxy-2-O-methyl-1-thio-α-D-galactopyranoside] | 7.38
CO[C@@H]1[C@@H](n2cc(-c3cc(F)c(Cl)c(F)c3)nn2)[C@@H](O)[C@@H](CO)O[C@@H]1Sc1cncc(C#N)c1 [Example 60, 5-Cyanopyridin-3-yl 3-[4-(4-chloro-3,5-difluorophenyl)-1H-1,2,3-triazol-1-yl]-3-deoxy-2-O-methyl-1-thio-α-D-galactopyranoside] | 7.10
CO[C@@H]1[C@@H](n2cc(-c3cc(F)c(F)c(F)c3)nn2)[C@@H](O)[C@@H](CO)O[C@@H]1Sc1cc(Cl)cnc1-c1ccncc1 [Example 27, 5-Chloro-2-(pyridin-4-yl)pyridin-3-yl 3-deoxy-3-[4-(3,4,5-trifluorophenyl)-1H-1,2,3-triazol-1-yl]-2-O-methyl-1-thio-α-D-galactopyranoside] | 7.25
CO[C@@H]1[C@@H](n2cc(-c3cc(F)c(F)c(F)c3)nn2)[C@@H](O)[C@@H](CO)O[C@@H]1Sc1cc(-c2nccs2)cnc1-c1nccs1 [Example 32, 2,5-Bis(thiazol-2-yl)pyridin-3-yl 3-deoxy-3-[4-(3,4,5-trifluorophenyl)-1H-1,2,3-triazol-1-yl]-2-O-methyl-1-thio-α-D-galactopyranoside] | 6.68
CO[C@@H]1[C@@H](n2cc(-c3cc(F)c(F)c(F)c3)nn2)[C@@H](O)[C@@H](CO)O[C@@H]1Sc1cc(Cl)cnc1C1=CCNC1 [Example 29, 5-Chloro-2-(3-pyrrolin-3-yl)pyridin-3-yl 3-deoxy-3-[4-(3,4,5-trifluorophenyl)-1H-1,2,3-triazol-1-yl]-2-O-methyl-1-thio-α-D-galactopyranoside] | 7.17
C#Cc1cncc(S[C@H]2O[C@H](CO)[C@H](O)[C@H](n3cc(-c4cc(F)c(Cl)c(F)c4)nn3)[C@H]2OC)c1 [Example 54, 5-Ethynylpyridin-3-yl 3-[4-(4-chloro-3,5-difluorophenyl)-1H-1,2,3-triazol-1-yl]-3-deoxy-2-O-methyl-1-thio-α-D-galactopyranoside] | 7.46
CO[C@@H]1[C@@H](n2cc(-c3ccc(Cl)c(F)n3)nn2)[C@@H](O)[C@@H](CO)O[C@@H]1Sc1cc(Cl)cnc1C#N [Example 55, 5-Chloro-2-cyanopyridin-3-yl 3-[4-(5-chloro-6-fluoropyridin-2-yl)-1H-1,2,3-triazol-1-yl]-3-deoxy-2-O-methyl-1-thio-α-D-galactopyranoside] | 6.46
COC1[C@@H](Sc2cc(Cl)cnc2N2CC3(COC3)C2)OC(CO)[C@H](O)[C@@H]1n1cc(-c2cc(F)c(F)c(F)c2)nn1 (stereo partly drawn) [Example 10, 5-Chloro-2-{N-(2-oxa)-6-azaspiro[3.3]heptanyl}-pyridin-3-yl 3-deoxy-3-[4-(3,4,5-trifluorophenyl)-1H-1,2,3-triazol-1-yl]-2-O-methyl-1-thio-α-D-galactopyranoside] | 7.48
CO[C@@H]1[C@@H](n2cc(-c3cc(F)c(F)c(F)c3)nn2)[C@@H](O)[C@@H](CO)O[C@@H]1Sc1cc(Cl)cnc1C#N [Example 46, 5-Chloro-2-cyanopyridin-3-yl 3-deoxy-3-[4-(3,4,5-trifluorophenyl)-1H-1,2,3-triazol-1-yl]-2-O-methyl-1-thio-α-D-galactopyranoside] | 7.46
OC[C@H]1O[C@H](Sc2cncc(Br)c2)[C@H](OCCF)[C@@H](n2cc(-c3cc(F)c(F)c(F)c3)nn2)[C@H]1O [Example 19, 5-Bromopyridin-3-yl 3-deoxy-3-[4-(3,4,5-trifluorophenyl)-1H-1,2,3-triazol-1-yl]-2-O-(2-fluoroethyl)-1-thio-α-D-galactopyranoside] | 7.70
C#Cc1cnc(C#N)c(S[C@H]2O[C@H](CO)[C@H](O)[C@H](n3cc(-c4cc(F)c(C)c(F)c4)nn3)[C@H]2OC)c1 [Example 57, 2-Cyano-5-ethynylpyridin-3-yl 3-deoxy-3-[4-(3,5-difluoro-4-methylphenyl)-1H-1,2,3-triazol-1-yl]-2-O-methyl-1-thio-α-D-galactopyranoside] | 7.46
CO[C@@H]1[C@@H](n2cc(-c3cc(F)c(Cl)c(F)c3)nn2)[C@@H](O)[C@@H](CO)O[C@@H]1Sc1cnc(C(F)(F)F)c(C)c1 [Example 39, 6-Trifluoromethyl-5-methylpyridin-3-yl 3-[4-(4-chloro-3,5-difluorophenyl)-1H-1,2,3-triazol-1-yl]-3-deoxy-2-O-methyl-1-thio-α-D-galactopyranoside] | 6.55

Other lines, results leading:

pKd | Structure (SMILES)
7.80 | CO[C@@H]1[C@@H](n2cc(-c3cc(F)c(F)c(F)c3)nn2)[C@@H](O)[C@@H](CO)O[C@@H]1Sc1cc(Br)ccc1C(=O)N1CCC1 [Example 64, 2-(N-azetidinyl-carbonyl)-5-bromophenyl 3-deoxy-3-[4-(3,4,5-trifluorophenyl)-1H-1,2,3-triazol-1-yl]-2-O-methyl-1-thio-α-D-galactopyranoside]
7.64 | CO[C@@H]1[C@@H](n2cc(-c3cc(F)c(Cl)c(F)c3)nn2)[C@@H](O)[C@@H](CO)O[C@@H]1Sc1cc(Br)cnc1C#N [Example 50, 5-Bromo-2-cyanopyridin-3-yl 3-[4-(4-chloro-3,5-difluorophenyl)-1H-1,2,3-triazol-1-yl]-3-deoxy-2-O-methyl-1-thio-α-D-galactopyranoside]
7.85 | COC1[C@@H](Sc2cc(Cl)ccc2C(=O)N(C)C)OC(CO)[C@H](O)[C@@H]1n1cc(-c2cc(F)c(Cl)c(F)c2)nn1 (stereo partly drawn) [Example 4, 4-Chloro-N,N-dimethyl-benzamide-2-yl 3-[4-(4-chloro-3,5-difluorophenyl)-1H-1,2,3-triazol-1-yl]-3-deoxy-2-O-methyl-1-thio-α-D-galactopyranoside]
7.22 | COC1[C@@H](Sc2cc(Cl)c(C#N)nc2N2CC3(COC3)C2)OC(CO)[C@H](O)[C@@H]1n1cc(-c2cc(F)c(Cl)c(F)c2)nn1 (stereo partly drawn) [Example 22, 5-Chloro-6-cyano-2-{N-(2-oxa)-6-azaspiro[3.3]heptanyl}-pyridin-3-yl 3-[4-(4-chloro-3,5-difluorophenyl)-1H-1,2,3-triazol-1-yl]-3-deoxy-2-O-methyl-1-thio-α-D-galactopyranoside]
7.51 | CO[C@@H]1[C@@H](n2cc(-c3cc(F)c(Cl)c(F)c3)nn2)[C@@H](O)[C@@H](CO)O[C@@H]1Sc1cncc(Cl)c1 [Example 33, 5-Chloropyridin-3-yl 3-[4-(4-chloro-3,5-difluorophenyl)-1H-1,2,3-triazol-1-yl]-3-deoxy-2-O-methyl-1-thio-α-D-galactopyranoside]
8.10 | COC1[C@@H](Sc2cc(Cl)ccc2C(=O)N(C)C)OC(CO)[C@H](O)[C@@H]1n1cc(-c2cc(F)c(F)c(F)c2)nn1 (stereo partly drawn) [Example 3, 4-Chloro-N,N-dimethyl-benzamide-2-yl 3-deoxy-3-[4-(3,4,5-trifluorophenyl)-1H-1,2,3-triazol-1-yl]-2-O-methyl-1-thio-α-D-galactopyranoside]
7.68 | CO[C@@H]1[C@@H](n2cc(-c3cc(F)c(Cl)c(F)c3)nn2)[C@@H](O)[C@@H](CO)O[C@@H]1Sc1cncc(Br)c1 [Example 34, 5-Bromopyridin-3-yl 3-[4-(4-chloro-3,5-difluorophenyl)-1H-1,2,3-triazol-1-yl]-3-deoxy-2-O-methyl-1-thio-α-D-galactopyranoside]
7.92 | CO[C@@H]1[C@@H](n2cc(-c3cc(F)c(F)c(F)c3)nn2)[C@@H](O)[C@@H](CO)O[C@@H]1Sc1cc(Cl)ccc1C(=O)N1CCC1 [Example 70, 2-(N-azetidinyl-carbonyl)-5-chlorophenyl 3-deoxy-3-[4-(3,4,5-trifluorophenyl)-1H-1,2,3-triazol-1-yl]-2-O-methyl-1-thio-α-D-galactopyranoside]
7.55 | C#Cc1cnc(C#N)c(S[C@H]2O[C@H](CO)[C@H](O)[C@H](n3cc(-c4cc(F)c(Cl)c(F)c4)nn3)[C@H]2OC)c1 [Example 56, 2-Cyano-5-ethynylpyridin-3-yl 3-[4-(4-chloro-3,5-difluorophenyl)-1H-1,2,3-triazol-1-yl]-3-deoxy-2-O-methyl-1-thio-α-D-galactopyranoside]
7.82 | CO[C@@H]1[C@@H](n2cc(-c3cc(F)c(Cl)c(F)c3)nn2)[C@@H](O)[C@@H](CO)O[C@@H]1Sc1cc(Cl)ccc1C(=O)N1CCC1 [Example 40, 2-(N-azetidinyl-carbonyl)-5-chlorophenyl 3-[4-(4-chloro-3,5-difluorophenyl)-1H-1,2,3-triazol-1-yl]-3-deoxy-2-O-methyl-1-thio-α-D-galactopyranoside]
